Measured values published in patent US11006626B2, “Compounds for protection of cells” (Sulfateq B.V., priority 2012, dated 2021).

Tests used:
apherese blood platelets [1] = assay: Apheresis platelets stored with Sul 136, platelet aggregation (Platelet Aggregation Profiler PAP 8); assay type: cell-based; conditions: for Platelet aggregation ADP (%) / Platelet aggregation Collagen (%): stored at 4° C. with Sul 136
Experimental: (§1) 300 μM suspension of Sul 136 is added with a procedure, which keeps the bag content sterile and the Sul 136 is kept in suspension by frequent whirling and stored at 37° C. before it is added to the freshly harvested platelets. The Sul 136 suspension is added to three platelet bags directly from the bag. After addition, the content of the platelet bag is gently mixed. After 2 hours the first sample is drawn with a seal-docked sample bag. The sample bag is disconnected by welding and from this sample bag the samples are taken for hematology analyzing, aggregometer tests and the flow-cytometry tests. Swirling in the bag is reported by experience of the laboratory worker in the standard format. Platelets without Sul 136 put on a flatbed shaker and stored at room temperature were used as control. Another control is stored at 4° C. Platelet samples in which Sul 136 is added, are stored without shaking in a refrigerator at 4° C.
Platelet aggregation was measured according to Platelet Aggregation Profiler PAP 8 (Mölab) using all reagents from Mölab.
3 ml platelet concentrate was centrifuged at 3000 RPM to get PPP. 1800 μl PPP and 600 μl PRP were mixed.
225 μl PRP was brought in test tube with magnetic stirrer. 225 μl PPP+25 μl aquadest was brought in test tube without magnetic stirrer. PPP was used for basis. PRP was put during 2 min at 37° C. on a roller. Measurement with PRP in aggregometer was started after 30 seconds with 25 μl inductor. Measurement was performed during 6 min.

apherese blood platelets [2] = assay: Apheresis platelets stored with Sul 136, Annexin V test by flow cytometry; assay type: cell-based; conditions: stored at 4° C. with Sul 136
Experimental: as §1
On a Beckman Coulter FC 500 flow cytometer using the Roche Annexin-V FLUOS Staining Kit
A mix of 20 μl Annexin-V fluorescein from Roche kit into 1 ml incubation buffer was made and 20 μl propidium iodide solution was added. 2 ml of platelet concentrate was centrifuged on standard Eppendorf centrifuge and the supernatant was discarded.
1 ml PBS buffer was added and cell concentration was checked whether it was around 1.000.000. This was diluted 100 times with the prepared Annexin-V fluorescein and propidium iodide mix and incubated for 15 minutes. 500 μl incubation buffer from kit was added and cell analysis was made in a flowcytometer.

## Cc1c(C)c2c(c(C)c1O)CCC(C)(C(=O)N1CCN(CC(=O)O)CC1)O2 (racemic) [SUL - 136, 2-(4-(6-hydroxy-2,5,7,8-tetramethylchroman-2-carbonyl)piperazin-1-yl)acetic acid]
Apherese blood platelets [1]; Donor 2, Day 1
  Platelet aggregation ADP (%): 0%
  Platelet aggregation Collagen (%): 0%
Apherese blood platelets [1]; Donor 2, Day 2
  Platelet aggregation ADP (%): 0%
  Platelet aggregation Collagen (%): 0%
Apherese blood platelets [1]; Donor 2, Day 3
  Platelet aggregation ADP (%): 0%
  Platelet aggregation Collagen (%): 4%
Apherese blood platelets [1]; Donor 2, Day 5
  Platelet aggregation ADP (%): 0%
  Platelet aggregation Collagen (%): 0%
Apherese blood platelets [1]; Donor 2, Day 8
  Platelet aggregation ADP (%): 0%
  Platelet aggregation Collagen (%): 0%
Apherese blood platelets [1]; Donor 2, Day 10
  Platelet aggregation ADP (%): 0%
  Platelet aggregation Collagen (%): 0%
Apherese blood platelets [1]; Donor 2, Day 12
  Platelet aggregation ADP (%): 0%
  Platelet aggregation Collagen (%): 5%
Apherese blood platelets [1]; Donor 2, Day 19
  Platelet aggregation ADP (%): 0%
  Platelet aggregation Collagen (%): 0%
Apherese blood platelets [1]; Donor 3, Day 1
  Platelet aggregation ADP (%): 0%
  Platelet aggregation Collagen (%): 0%
Apherese blood platelets [1]; Donor 3, Day 2
  Platelet aggregation ADP (%): 0%
  Platelet aggregation Collagen (%): 0%
Apherese blood platelets [1]; Donor 3, Day 3
  Platelet aggregation ADP (%): 0%
  Platelet aggregation Collagen (%): 0%
Apherese blood platelets [1]; Donor 3, Day 5
  Platelet aggregation ADP (%): 6%
  Platelet aggregation Collagen (%): 0%
Apherese blood platelets [1]; Donor 3, Day 8
  Platelet aggregation ADP (%): 0%
  Platelet aggregation Collagen (%): 0%
Apherese blood platelets [1]; Donor 3, Day 10
  Platelet aggregation ADP (%): 0%
  Platelet aggregation Collagen (%): 0%
Apherese blood platelets [1]; Donor 3, Day 12
  Platelet aggregation ADP (%): 0%
  Platelet aggregation Collagen (%): 8%
Apherese blood platelets [1]; Donor 3, Day 19
  Platelet aggregation ADP (%): 0%
  Platelet aggregation Collagen (%): 0%
Apherese blood platelets [1]; donor 1, day 12 and day 19, stored at 4° C.
  platelet aggregation upon stimulation with collagen and ADP: restored
Apherese blood platelets [1]; donor 1, Day 1
  Platelet aggregation ADP (%): 0%
  Platelet aggregation Collagen (%): 0%
Apherese blood platelets [1]; donor 1, Day 2
  Platelet aggregation ADP (%): 0%
  Platelet aggregation Collagen (%): 0%
Apherese blood platelets [1]; donor 1, Day 3
  Platelet aggregation ADP (%): 0%
  Platelet aggregation Collagen (%): 0%
Apherese blood platelets [1]; donor 1, Day 5
  Platelet aggregation ADP (%): 0%
  Platelet aggregation Collagen (%): 0%
Apherese blood platelets [1]; donor 1, Day 8
  Platelet aggregation ADP (%): 0%
  Platelet aggregation Collagen (%): 0%
Apherese blood platelets [1]; donor 1, Day 10
  Platelet aggregation ADP (%): 0%
  Platelet aggregation Collagen (%): 0%
Apherese blood platelets [1]; donor 1, Day 12
  Platelet aggregation ADP (%): 12%
  Platelet aggregation Collagen (%): 17%
Apherese blood platelets [1]; donor 1, Day 19
  Platelet aggregation ADP (%): 31%
  Platelet aggregation Collagen (%): 32%
Apherese blood platelets [2]; Donor 2, Day 1
  Annexin (% positive): 5.98%
Apherese blood platelets [2]; Donor 2, Day 2
  Annexin (% positive): 10.96%
Apherese blood platelets [2]; Donor 2, Day 3
  Annexin (% positive): 19.56%
Apherese blood platelets [2]; Donor 2, Day 5
  Annexin (% positive): 32.11%
Apherese blood platelets [2]; Donor 2, Day 8
  Annexin (% positive): 45.71%
Apherese blood platelets [2]; Donor 2, Day 10
  Annexin (% positive): 53.96%
Apherese blood platelets [2]; Donor 2, Day 12
  Annexin (% positive): 62.97%
Apherese blood platelets [2]; Donor 2, Day 19
  Annexin (% positive): 72.67%
Apherese blood platelets [2]; Donor 3, Day 1
  Annexin (% positive): 5.14%
Apherese blood platelets [2]; Donor 3, Day 2
  Annexin (% positive): 8.68%
Apherese blood platelets [2]; Donor 3, Day 3
  Annexin (% positive): 14.34%
Apherese blood platelets [2]; Donor 3, Day 5
  Annexin (% positive): 27.77%
Apherese blood platelets [2]; Donor 3, Day 8
  Annexin (% positive): 41.97%
Apherese blood platelets [2]; Donor 3, Day 10
  Annexin (% positive): 62.65%
Apherese blood platelets [2]; Donor 3, Day 12
  Annexin (% positive): 70.33%
Apherese blood platelets [2]; Donor 3, Day 19
  Annexin (% positive): 80.99%
Apherese blood platelets [2]; donor 1, Day 1
  Annexin (% positive): 4.51%
Apherese blood platelets [2]; donor 1, Day 2
  Annexin (% positive): 14.48%
Apherese blood platelets [2]; donor 1, Day 3
  Annexin (% positive): 18.24%
Apherese blood platelets [2]; donor 1, Day 5
  Annexin (% positive): 20.38%
Apherese blood platelets [2]; donor 1, Day 8
  Annexin (% positive): 34.56%
Apherese blood platelets [2]; donor 1, Day 10
  Annexin (% positive): 43.52%
Apherese blood platelets [2]; donor 1, Day 12
  Annexin (% positive): 56.91%
Apherese blood platelets [2]; donor 1, Day 19
  Annexin (% positive): 88.34%
